Our source for the Ki values is patent US6727254B2 (Schering Corporation, priority 2001, dated 2004).

The assay concerns the target T1, ORL-1 receptor (Homo sapiens, UniProt P41146).
T1 construct: expressed in transfected cells; host or cells: CHO cells (membrane preparation)
In words: Nociceptin binding assay. Conditions: CHO cell membrane preparation expressing the ORL-1 receptor; [125I][Tyr14]nociceptin. The method, then:
CHO cell membrane preparation expressing the ORL-1 receptor (2 mg) was incubated with varying concentrations of [^125I][Tyr ^14]nociceptin (3-500 pM) in a buffer containing 50 mM HEPES (pH7.4), 10 mM NaCl, 1 mM MgCl2, 2.5 mM CaCl2, 1 mg/ml bovine serum albumin and 0.025% bacitracin. In a number of studies, assays were carried out in buffer 50 mM tris-HCl (pH 7.4), 1 mg/ml bovine serum albumin and 0.025% bacitracin. Samples were incubated for 1 h at room temperature (22° C.). Radiolabelled ligand bound to the membrane was harvested over GF/B filters presoaked in 0.1% polyethyleneimine using a Brandell cell harvester and washed five times with 5 ml cold distilled water. Nonspecific binding was determined in parallel by similar assays performed in the presence of 1 μM nociceptin. All assay points were performed in duplicates of total and non-specific binding.
Calculations of Ki were made using methods well known in the art.

T1 sequence (P41146 whole entry): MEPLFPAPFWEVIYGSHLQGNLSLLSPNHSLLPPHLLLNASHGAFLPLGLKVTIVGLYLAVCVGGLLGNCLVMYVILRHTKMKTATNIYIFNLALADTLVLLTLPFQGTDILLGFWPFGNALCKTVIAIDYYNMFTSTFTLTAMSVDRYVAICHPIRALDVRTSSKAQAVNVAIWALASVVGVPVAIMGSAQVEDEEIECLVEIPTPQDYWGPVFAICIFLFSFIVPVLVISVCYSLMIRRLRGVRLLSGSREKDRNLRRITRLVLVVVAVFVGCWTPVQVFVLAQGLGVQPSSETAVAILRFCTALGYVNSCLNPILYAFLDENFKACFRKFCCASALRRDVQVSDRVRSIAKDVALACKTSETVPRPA

In general, Ki refers to a dissociation constant, usually derived from enzyme kinetics or from competition with a known ligand. Lower therefore signals tighter binding. As for `CCc1cnc(C2(O)CC3CCC(C2)N3C(c2ccccc2Cl)c2ccccc2Cl)nc1` (centres unmarked) [Example 2, 8-[Bis(2-chlorophenyl)methyl]-3-(5-ethyl-2-pyrimidinyl)-8-azabicyclo[3.2.1]octan-3-ol], the Ki is 7.6 nM.
With `OC1(c2ccccn2)CC2CCC(C1)N2C(c1ccccc1Cl)c1ccccc1Cl` (centres unmarked) [Example 4, 8-[Bis(2-Chlorophenyl)methyl]-3-(2-pyridinyl)-8-azabicyclo[3.2.1]octan-3-ol] the figure was 4 nM; with `OC1(c2cnccn2)CC2CCC(C1)N2C(c1ccccc1Cl)c1ccccc1Cl` (centres unmarked) [Example 12, 8-[Bis(2-chlorophenyl)methyl]-3-(2-pyrazinyl)-8-azabicyclo[3.2.1]octan-3-ol], 2 nM; with `OC1(c2ccc(Br)cn2)CC2CCC(C1)N2C(c1ccccc1Cl)c1ccccc1Cl` (centres unmarked) [Example 14, 8-[Bis(2-chlorophenyl)methyl]-3-(5-bromo-2-pyridinyl)-8-azabicyclo[3.2.1]octan-3-ol], 1.3 nM.
With `OC1(c2cccnn2)CC2CCC(C1)N2C(c1ccccc1Cl)c1ccccc1Cl` (centres unmarked) [Example 11, 8-[Bis(2-chlorophenyl)methyl]-3-(3-pyridazinyl)-8-azabicyclo[3.2.1]octan-3-ol] the figure was 7 nM.
With `OC1(c2nccc(N3CCNCC3)n2)CC2CCC(C1)N2C(c1ccccc1Cl)c1ccccc1Cl` (centres unmarked) [Example 3, 8-[Bis(2-chlorophenyl)methyl]-3-[4-(1-piperazinyl)-2-pyrimidinyl]-8-azabicyclo[3.2.1]octan-3-ol] the figure was 4 nM.
As for `COC1(c2ncccn2)CC2CCC(C1)N2C(c1ccccc1Cl)c1ccccc1Cl` (centres unmarked) [Example 6, 8-[Bis(2-chlorophenyl)methyl]-3-methoxy-3-(2-pyrimidinyl)-8-azabcyclo[3.2.1]octane], the affinity corresponds to a Ki of 5.4 nM.
With `Cn1nccc1C1(O)CC2CCC(C1)N2C(c1ccccc1Cl)c1ccccc1Cl` (centres unmarked) [Example 8, 8-[Bis(2-chlorophenyl)methyl]-3-(1-methyl-pyrazol-5-yl)-8-azabicyclo[3.2.1]octan-3-ol] the figure was 6 nM.
